The test system of assay [1] is Staphylococcus aureus SA-1199B. It counts as cell-based. The text has this:
For purposes of comparison, compound 1 was included as a reference.

The target of assay [2] is T1, S. aureus NorA efflux pump (SA-1199B strain, overexpresses the norA gene) (Staphylococcus aureus, UniProt P0A0J7).
T1 construct: endogenous in cells; host or cells: S. aureus SA-1199B (overexpresses norA; isogenic parent SA-1199)
Kind of assay: EtBr efflux inhibition assay. Format: cell-based. Particulars: for inhibition at 10 µM: read-out: EtBr efflux inhibition (%), compound at 10 µM, SA-1199B; for inhibition at 50 µM: read-out: EtBr efflux inhibition (%), compound at 50 µM, SA-1199B. Here is the method: EtBr efflux inhibition assays were conducted using the S. aureus SA‐1199B strain, which overexpresses the norA gene and has an A116E GrlA substitution. Each compound was tested at 50 µM (see Figure 2). The starting hit compound 1 was used as the internal standard for comparison with the previously reported data.
The cells were grown overnight in cation‐supplemented Mueller–Hinton broth (CAMHB) without any additives at 35°C. The organisms were subsequently diluted into CAMHB to obtain an optical density at 600 nm (OD600) of 0.7–0.8. Subsequently, the cells were pelleted and resuspended at an OD600 of 0.8 in 0.5 mL aliquots of CAMHB containing EtBr and carbonyl cyanide m‐chlorophenylhydrazone (CCCP) to “load” the cells with EtBr (final concentrations of 25 μM for EtBr and 100 μM for CCCP). Following 20 min of incubation at room temperature, the cells were pelleted and resuspended in 1 mL of fresh CAMHB. Immediately thereafter, 200 μL aliquots were transferred into the wells of white 96‐well plates, which either lacked or contained 50 or 10 μM of each test compound. Fluorescence was monitored continuously using a microplate reader (Infinite M200 Pro, TECAN) at excitation and emission wavelengths of 485 and 645 nm, respectively, for a period of 5 min. The experiments were conducted in triplicate, with two technical replicates per biological replicate. The efflux activity of the SA‐1199B strain was expressed as a percentage of fluorescence decrease over a 5‐min time course. The inhibition of this efflux by the test compounds was determined using the following equation: ([efflux in the absence] ‐ [efflux in the presence of test [compound])/[efflux in the absence of test compound] × 100, which yielded the percent efflux inhibition observed.
^a Experiments were performed in triplicate with two technical replicates per biological replicate. Efflux activity of SA-1199B was expressed as percent fluorescence decrease over a 5 min time course. Inhibition of this efflux by test compounds was determined using the equation [efflux in the absence] − [efflux in the presence of test [compound]/[efflux in the absence of test compound] × 100, giving the percent efflux inhibition observed.

Assay [3] concerns S. aureus SA-1199 (wild type). Briefly: MIC determination against wild-type SA-1199. Particulars: Staphylococcus aureus, compound alone. Format: cell-based. From the text: (§1) This finding aligns with their mechanism of action, which involves the inhibition of NorA, which is only basally expressed in the wild‐type SA‐1199 strain.
Assay [4] concerns S. aureus SA-1199 (wild type). Briefly: Synergistic assay with CPX against wild-type SA-1199. Format: cell-based, Staphylococcus aureus. Particulars: EPI at 3.13 µg/mL with CPX.
Description: as §1

The subject of assay [5] is Staphylococcus aureus SA-1199B. Briefly: MIC determination (broth microdilution) against SA-1199B. Format: cell-based. Particulars: SA1199B. The text has this:
In this study, the S. aureus strains SA‐1199B (overexpressing norA) and its isogenic parent SA‐1199 (wild type), the pair SA‐K1902 (norA‐depleted) and SA‐K2378 (complemented with a pCU1 plasmid harboring the norA promoting and coding region from SA‐1199B), were used to test EPI activity as described in a previous study. Furthermore, the S. aureus ATCC 29213 was used as the reference strain in MIC determination experiments.
A general note: In broth dilution the organism is exposed to a series of concentrations in liquid medium.

Each structure is given as a SMILES string. Like-named read-outs stand apart in the source and are kept apart here.

A word on the inhibition: it is how much of the control response was suppressed. One may read the MIC as the lowest concentration that inhibits growth of the organism.

T1 sequence (P0A0J7 whole entry): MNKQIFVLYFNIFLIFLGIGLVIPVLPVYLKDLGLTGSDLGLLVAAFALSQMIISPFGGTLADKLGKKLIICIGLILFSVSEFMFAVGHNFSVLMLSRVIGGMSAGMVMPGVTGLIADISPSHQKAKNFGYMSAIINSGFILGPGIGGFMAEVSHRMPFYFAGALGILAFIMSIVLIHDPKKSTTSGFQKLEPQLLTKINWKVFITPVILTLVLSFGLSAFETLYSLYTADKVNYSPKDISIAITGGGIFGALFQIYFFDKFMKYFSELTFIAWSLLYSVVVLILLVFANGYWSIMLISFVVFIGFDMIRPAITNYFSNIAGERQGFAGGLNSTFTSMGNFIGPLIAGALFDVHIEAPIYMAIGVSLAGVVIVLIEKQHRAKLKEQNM

Take `CN1c2c(-c3ccc(F)c(Cl)c3)n[nH]c2-c2ccccc2S1(=O)=O` [Compound 13, 3‐(3‐Chloro‐4‐fluorophenyl)‐4‐methyl‐1,4‐dihydropyrazolo[4,3‐c][1,2]benzothiazine 5,5‐dioxide]: the “N° fold CPX MIC reduction” value was 2 fold in assay [1] (EPI at 3.12 µg/mL) and 4 fold in assay [1] (EPI at 12.5 µg/mL). The inhibition at 10 µM in assay [2] was determined as 0%. Moreover, the inhibition at 50 µM in assay [2] amounted to 100%. Besides, the minimal inhibitory concentration (MIC) in assay [3] and in assay [5] was more than 50 µg/mL throughout. Also, the “synergistic effect with CPX” value in assay [4] is listed as “did not show any synergistic effect”.

Regarding `CCN(CC)CCOC1=C(C(=O)c2ccc(F)cc2)N(C)S(=O)(=O)c2ccccc21` [Compound 23, {4‐[2‐(Diethylamino)ethoxy]‐2‐methyl‐1,1‐dioxido‐2H‐1,2‐benzothiazin‐3‐yl}(4‐fluorophenyl)methanone], the “N° fold CPX MIC reduction” value in assay [1] (EPI at 12.5 µg/mL) came out at 2 fold. Besides, in assay [2], the inhibition at 50 µM was 36%. Moreover, the MIC in assay [5] was more than 50 µg/mL.

On to `CN1c2c(-c3ccc(Cl)cc3)nn(-c3ccc([N+](=O)[O-])cc3)c2-c2ccccc2S1(=O)=O` [Compound 2], for which, in assay [2], the inhibition at 50 µM worked out at 0%. Besides, in assay [5], the MIC is more than 50 µg/mL.

For the molecule `Cc1nn(-c2ccc([N+](=O)[O-])cc2)c2c1S(=O)(=O)N(C)c1ccccc1-2` [Compound 7, 3,5‐Dimethyl‐1‐(4‐nitrophenyl)‐1,5‐dihydropyrazolo[4,3‐c][2,1]benzothiazine 4,4‐dioxide], the inhibition at 50 µM in assay [2] was found to be 3%. The molecule further displayed an MIC in assay [5] of more than 50 µg/mL.

`COc1ccc2c(c1)S(=O)(=O)N(C)c1c(-c3ccc(F)cc3)nn(C)c1-2` [Compound 22, 3‐(4‐Fluorophenyl)‐7‐methoxy‐1,4‐dimethyl‐1,4‐dihydropyrazolo[4,3‐c][1,2]benzothiazine 5,5‐dioxide]: the “N° fold CPX MIC reduction” value in assay [1] (EPI at 12.5 µg/mL) was determined as 2 fold. Besides, in assay [2], the inhibition at 50 µM is 22%. The molecule further gave a minimal inhibitory concentration (MIC) in assay [5] of more than 50 µg/mL.

For the molecule `O=S1(=O)c2ccccc2-c2[nH]nc(-c3ccc(F)cc3)c2N1CCCO` [Compound 15, 3‐[3‐(4‐Fluorophenyl)‐5,5‐dioxidopyrazolo[4,3‐c][1,2]benzothiazin‐4(1H)‐yl]propan‐1‐ol], the “N° fold CPX MIC reduction” value in assay [1] (EPI at 12.5 µg/mL) turned out to be 2 fold. The inhibition at 50 µM in assay [2] was determined as 17%. Further, in assay [5], the minimal inhibitory concentration (MIC) is more than 50 µg/mL.

Consider `CCN1c2c(-c3ccc(F)cc3)n[nH]c2-c2ccccc2S1(=O)=O` [Compound 14, 4‐Ethyl‐3‐(4‐fluorophenyl)‐1,4‐dihydropyrazolo[4,3‐c][1,2]benzothiazine 5,5‐dioxide], for which the “N° fold CPX MIC reduction” value in assay [1] (EPI at 12.5 µg/mL) was 2 fold. In addition, the inhibition at 50 µM in assay [2] is 57%. Also, the minimal inhibitory concentration (MIC) in assay [5] is more than 50 µg/mL.

`CN1c2c(-c3ccccc3)n[nH]c2-c2ccccc2S1(=O)=O` [Compound 11, 4‐Methyl‐3‐phenyl‐1,4‐dihydropyrazolo[4,3‐c][1,2]benzothiazine 5,5‐dioxide]: the inhibition at 50 µM in assay [2] was less than 70%. The molecule further returned a minimum inhibitory concentration (MIC) in assay [5] of more than 50 µg/mL.

For `Cc1nn(-c2ccc([N+](=O)[O-])cc2)c2c1NS(=O)(=O)c1ccccc1-2` [Compound 4], the inhibition at 50 µM in assay [2] came to 0%. In assay [5], this molecule registered an MIC of more than 50 µg/mL.

On to `CNCCN1c2c(-c3ccc(F)cc3)n[nH]c2-c2ccccc2S1(=O)=O` [Compound 17, 2‐[3‐(4‐Fluorophenyl)‐5,5‐dioxidopyrazolo[4,3‐c][1,2]benzothiazin‐4(1H)‐yl]‐N‐methylethanamine], for which, in assay [2], the inhibition at 50 µM came to 57%. The same molecule had a minimal inhibitory concentration (MIC) in assay [5] of more than 50 µg/mL.

As for `CNC(=O)CN1c2c(-c3ccc(F)cc3)n[nH]c2-c2ccccc2S1(=O)=O` [Compound 16, 2‐[3‐(4‐Fluorophenyl)‐5,5‐dioxidopyrazolo[4,3‐c][1,2]benzothiazin‐4(1H)‐yl]‐N‐methylacetamide], the “N° fold CPX MIC reduction” value in assay [1] (EPI at 12.5 µg/mL) was 2 fold. For the same molecule, the inhibition at 50 µM in assay [2] is 22%. The molecule also yielded a minimum inhibitory concentration (MIC) in assay [5] of more than 50 µg/mL.

Turning to `Cc1cc(-c2ccccc2NS(C)(=O)=O)n(-c2ccccc2)n1` [Compound 8, N‐[2‐(3‐Methyl‐1‐phenyl‐1H‐pyrazol‐5‐yl)phenyl]methanesulfonamide], in assay [1] (EPI at 12.5 µg/mL), the “N° fold CPX MIC reduction” value stood at 2 fold. Besides, the inhibition at 50 µM in assay [2] stood at 0%. Further, the MIC in assay [5] is more than 50 µg/mL.

As to `Cc1nn(-c2ccc([N+](=O)[O-])cc2)c2c1N(C)S(=O)(=O)c1ccccc1-2` [Compound 6], in assay [2], the inhibition at 50 µM was 22%. In assay [5], this molecule gave a minimum inhibitory concentration (MIC) of more than 50 µg/mL.

Consider `CN1c2c(-c3ccc(F)cc3)n[nH]c2-c2ccccc2S1(=O)=O` [Compound 12, 3‐(4‐Fluorophenyl)‐4‐methyl‐1,4‐dihydropyrazolo[4,3‐c][1,2]benzothiazine 5,5‐dioxide], for which, in assay [2], the inhibition at 10 µM stood at 22% and the inhibition at 50 µM is 87%. For the same molecule, the MIC in assay [3] was more than 50 µg/mL. Besides, the “synergistic effect with CPX” value in assay [4] is given as “did not show any synergistic effect”. The molecule further showed an MIC in assay [5] of more than 50 µg/mL.

As to `O=S1(=O)Nc2c(-c3ccc(Cl)cc3)n[nH]c2-c2ccccc21` [Compound 9, 3‐(4‐Chlorophenyl)‐1,4‐dihydropyrazolo[4,3‐c][1,2]benzothiazine 5,5‐dioxide], the “N° fold CPX MIC reduction” value in assay [1] (EPI at 12.5 µg/mL) was determined as 2 fold. Besides, the inhibition at 50 µM in assay [2] stood at 12%. Also, in assay [5], the MIC is more than 50 µg/mL.

In the case of `CN1c2c(-c3ccc(Cl)cc3)nn(CCN3CCCCC3)c2-c2ccccc2S1(=O)=O` [Compound 18, 3‐(4‐Chlorophenyl)‐4‐methyl‐1‐(2‐piperidin‐1‐ylethyl)‐1,4‐dihydropyrazolo[4,3‐c][1,2]benzothiazine 5,5‐dioxide], the “N° fold CPX MIC reduction” value in assay [1] (EPI at 6.25 µg/mL) stood at 2 fold; in assay [1] (EPI at 12.5 µg/mL), 4 fold. For the same molecule, in assay [2], the inhibition at 10 µM turned out to be 37%. Also, the inhibition at 50 µM in assay [2] was more than 70%. Also, the minimal inhibitory concentration (MIC) in assay [3] and in assay [5] was more than 50 µg/mL each time. Further, in assay [4], the “synergistic effect with CPX” value was “did not show any synergistic effect”.

As for `CN1c2c(-c3ccc(F)cc3)nn(C)c2-c2ccc(OCCN3CCCCC3)cc2S1(=O)=O` [Compound 20, 3‐(4‐Fluorophenyl)‐1,4‐dimethyl‐7‐(2‐piperidin‐1‐ylethoxy)‐1,4‐dihydropyrazolo[4,3‐c][1,2]benzothiazine 5,5‐dioxide], the “N° fold CPX MIC reduction” value in assay [1] (EPI at 6.25 µg/mL) was 2 fold; in assay [1] (EPI at 12.5 µg/mL), 8 fold. In assay [2], the inhibition at 10 µM is 33%. The inhibition at 50 µM in assay [2] was more than 70%. The MIC in assay [3] and in assay [5] was more than 50 µg/mL throughout. Further, in assay [4], the “synergistic effect with CPX” value is given as “did not show any synergistic effect”.

As for `Cc1nn(-c2ccc([N+](=O)[O-])cc2)c2c1S(=O)(=O)Nc1ccccc1-2` [Compound 5, 3‐Methyl‐1‐(4‐nitrophenyl)‐1,5‐dihydropyrazolo[4,3‐c][2,1]benzothiazine 4,4‐dioxide], the inhibition at 50 µM in assay [2] was 0%. Further, in assay [5], the minimum inhibitory concentration (MIC) is more than 50 µg/mL.

Consider `CN1C(C(=O)c2ccc(F)cc2)=C(OCCN2CCCCC2)c2ccccc2S1(=O)=O` [Compound 24, (4‐Fluorophenyl)[2‐methyl‐1,1‐dioxido‐4‐(2‐piperidin‐1‐ylethoxy)‐2H‐1,2‐benzothiazin‐3‐yl]methanone], for which the “N° fold CPX MIC reduction” value in assay [1] (EPI at 12.5 µg/mL) is listed as 2 fold. The inhibition at 50 µM in assay [2] is 38%. The molecule further registered an MIC in assay [5] of more than 50 µg/mL.

For the molecule `CN1c2c(-c3ccc(F)cc3)nn(C)c2-c2ccc(OCC(O)CO)cc2S1(=O)=O` (stereo not drawn) [Compound 21, 3‐{[3‐(4‐Fluorophenyl)‐1,4‐dimethyl‐5,5‐dioxido‐1,4‐dihydropyrazolo[4,3‐c][1,2]benzothiazin‐7‐yl]oxy}propane‐1,2‐diol], the inhibition at 50 µM in assay [2] was determined as 0%. The molecule also had an MIC in assay [5] of more than 50 µg/mL.

For the origin of these results see article PMC12089509, “NorA Efflux Pump Inhibitors: Expanding SAR Knowledge of Pyrazolo[4,3‐c][1,2]benzothiazine 5,5‐Dioxide Derivatives” (Archiv Der Pharmazie, 2025).
